Measured values published in patent US10391070B2, “Compositions and methods for treating neurological diseases or injury” (MUSC FOUNDATION FOR RESEARCH DEVELOPMENT, priority 2012, dated 2019).

Legend:
HT22 cells = assay: Mitochondrial morphology and superoxide generation (MitoSOX, Mitotracker); assay type: cell-based, mouse; conditions: HT22, high extracellular glutamate, co-treatment
Procedure: In order to evaluate the source of the ROS generation, fluorescence microscopy was used to image HT22 using the fluorogenic dyes Mitotracker Deep Red (DR) and MitoSOX Red (Invitrogen). Mitotracker DR is a cell permeant dye that accumulates in active, polarized mitochondria. […] Briefly, HT22 cells were seeded onto black walled 96-well plates at 5.0×10^3 cells per well in 75 μL of medium and maintained at 37° C. in 5% CO2 overnight prior to the initiation of experimental treatments. Cells were subsequently treated with 25 μL of medium containing glutamate (monosodium glutamate, Sigma-Aldrich, 1 M stock concentration in media, to achieve a final concentration of 10 mM) plus inhibitors (stock in DMSO) and maintained at 37° C. in 5% CO2. After 8 hrs, MitoSOX Red (5 μM) and Mitotracker DR (10 nM) were added to achieve the indicated final concentrations. Cells were allowed to incubate for 20 minutes and then washed twice with Hanks Balanced Salt Solution (HBSS; Hyclone; CaCl2 1.26 mM, MgCl2-6H2O 0.493 mM, MgSO4-7H2O 0.407 mM, KCl 5.33 mM, KH2PO4 0.441 mM, NaHCO3 4.17 mM, NaCl 137.93 mM, Na2HPO4 0.338 mM, D-Glucose 5.56 mM), with a final addition of 100 μL of HBSS in which the cells were visualized. Cells were immediately visualized using an InCell 2000 Analyzer (GE) with a 40× objective and a Cy5/Cy5 excitation/emission filter set for Mitotracker DR and a YFP/Cy3 filter set for MitoSOX Red. Image processing was performed using ImageJ, and for all images, the microscope and image processing settings, such as levels, brightness, contrast, and exposure time were held constant across all treatment conditions.

PTZ-induced seizures = assay: Subcutaneous PTZ seizure threshold test; assay type: in vivo, mouse; conditions: mice, 100 mg/kg i.p. pretreatment, PTZ 85 mg/kg s.c.
Procedure: Mouse studies were performed by NIH Anticonvulsant Screening Program at the National Institute of Neurological Disorders and Stroke (Stables and Kupferberg, 1997) according to the established NIH experimental procedures outlined below. Compounds were delivered into mice by i.p. injection at a dose of 100 mg/kg in sterile 5% DMSO, 95% Neobee (Josey et al., 2013). One of four methods for seizure induction was subsequently administered to mice at 0.25, 0.5, 1, 2 and 4 h after treatment with compound. (1) Subcutaneous PTZ seizure threshold test. PTZ was administered at a concentration of 85 mg/kg, into the loose fold of skin in the midline of the neck. […] (2) Maximal electroshock test. 60 Hz of 50 mA alternating current was delivered for 0.2 s by corneal electrodes. Mice were considered protected from seizures when the hindlimb tonic extensor was absent (White et al., 1995). (3) Minimal clonic seizure (6 Hz) test. 6 Hz of 32 mA or 44 mA alternating current was delivered for 3 s by corneal electrodes to elicit a psychomotor seizure. Mice were considered protected from seizures when the automatistic behaviors were absent (Barton et al., 2001). (4) Corneal kindled mouse model. Mice were kindled electrically with a 3 s stimulation, 8 mA, 60 Hz, and corneal electrodes to a criterion of 10 consecutive Stage 5 seizures (facial clonus and head nodding progressing to forelimb clonus, and finally rearing and falling accompanied by a generalized clonic seizure as described by Racine, 1972). Animals generally reach Stage 5 after twice daily stimulation for 8 days. With continued stimulation once a day, animals usually progressed to a reproducible Stage 5 after 10-14 additional days. At least 72 hours after the mice were kindled, the test substance was administered i.p. and each animal was given the electrical stimulus indicated above. […] Treated animals not displaying a Stage 4 or 5 seizure were considered protected.

Q: For `O=C1C=C(NCc2ccccc2)C(=O)c2ccccc21` [Compound 2j, 2-(benzylamino)naphthalene-1,4-dione], which “mitochondrial superoxide generation and mitochondrial fragmentation” value (HT22 cells) is on record?
A: prevented these events

Q: And the “effect on PTZ-induced seizures” value (PTZ-induced seizures)?
A: had no effect on PTZ-induced seizures in mice

Q: With `C#CCNC1=CC(=O)c2ccccc2C1=O` [Compound 2h, 2-(prop-2-yn-1-ylamino)naphthalene-1,4-dione] as the molecule, how does the “effect on PTZ-induced seizures” value (PTZ-induced seizures) read?
A: had no effect on PTZ-induced seizures in mice

Q: With menaquinones [VK2, reference compound] as the molecule, how does the “mitochondrial superoxide generation and mitochondrial fragmentation” value (HT22 cells) read?
A: prevented these events

Q: Which results are given for `O=C1C=C(NCc2cccc(Cl)c2)C(=O)c2ccccc21` [Compound 2q, 2-((3-chlorobenzyl)amino)naphthalene-1,4-dione]?
A: mitochondrial superoxide generation and mitochondrial fragmentation (HT22 cells): prevented these events; effect on PTZ-induced seizures (PTZ-induced seizures): had no effect on PTZ-induced seizures in mice
